In patent US20080181866A1, “Amido Anti-viral Compounds” (Genelabs Technologies, Inc., priority 2006, published 2008) one finds inhibition data, which are given here for 14 compounds.

This assay has as its system HCV replication. Put plainly: HCV replicon assay (luciferase) in ET (Huh-lucubineo-ET) cell line. The format is cell-based. The following applies: Hepatitis C virus, tested at 5 μM; ET replicon cells; luciferase activity measured 48-72 hours later; relative to no compound control. The method, boiled down:
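Huh-lucubineo-ET cells stably carry a subgenomic replicon with a firefly luciferase–ubiquitin–neo fusion and adaptive NS3-5B mutations; they were seeded 24 h before compound addition (0.1 nM–50 μM, 0.5% DMSO). Luciferase was read 48–72 h later as % inhibition versus no-compound control, with parallel WST-1 cytotoxicity. EC50 and TC50 came from 10-point 2-fold dilutions fitted to a Hill equation.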
For orientation: Replicon systems follow genome replication, usually without infectious particles.

As a reminder, the inhibition is the percentage by which the read-out fell short of the control. Higher therefore signals a response far below the control. Consider `O=C(Nc1ccccc1)c1ccc(NC(=O)[C@@H]2CSC(c3ccncc3)N2C(=O)OCc2ccccc2)cc1` (some centres unmarked) [Compound 7076, 4-(4-Phenylcarbamoyl-phenylcarbamoyl)-2-pyridin-4-yl-thiazolidine-3-carboxylic acid benzyl ester], for which at 5 µM the inhibition was 3.9%.

For the compound `O=C(NC1CC1)c1ccc(-c2csc(NC(=O)[C@@H]3CSC(C4CCCNC4)N3C(=O)OCc3ccccc3)n2)cc1` (mixture of isomers) [Compound 7021, (R)-4-[4-(4-Cyclopropylcarbamoyl-phenyl)-thiazol-2-ylcarbamoyl]-2-piperidin-3-yl-thiazolidine-3-carboxylic acid benzyl ester], the inhibition at 5 µM amounted to 100%.

`O=C(NC1CC1)c1ccc(-c2csc(NC(=O)[C@@H]3COC(c4ccccc4)N3C(=O)OCc3ccccc3)n2)cc1` (stereo partly drawn) [Compound 7046, (S)-4-[4-(4-Cyclopropylcarbamoyl-phenyl)-thiazol-2-ylcarbamoyl]-2-phenyl-oxazolidine-3-carboxylic acid benzyl ester] showed an inhibition at 5 µM of 99.1%.

Take `COc1ccc(Cc2cnc(NC(=O)[C@@H]3CSC(c4ccncc4)N3C(=O)OCc3ccccc3)s2)cc1` (stereo in doubt) [Compound 7137, 4-[5-(4-Methoxy-benzyl)-thiazol-2-ylcarbamoyl]-2-pyridin-4-yl-thiazolidine-3-carboxylic acid benzyl ester]: the inhibition at 5 µM was found to be 17.1%.

Take `O=C(NC1CC1)c1ccc(-c2csc(NC(=O)[C@@H]3CSC(C4CCNCC4)N3C(=O)OCc3ccccc3)n2)cc1` (mixture of isomers) [Compound 7042, (R)-4-[4-(4-Cyclopropylcarbamoyl-phenyl)-thiazol-2-ylcarbamoyl]-2-piperidin-4-yl-thiazolidine-3-carboxylic acid benzyl ester]: 5 µM produced 100% inhibition.

In turn, `O=C(NC1CC1)c1ccc(NC(=O)[C@@H]2CSC(c3ccncc3)N2C(=O)OCc2ccccc2)cc1` (stereo in doubt) [Compound 7066, 4-(4-Cyclopropylcarbamoyl-phenylcarbamoyl)-2-pyridin-4-yl-thiazolidine-3-carboxylic acid benzyl ester] gave an inhibition at 5 µM of 6.9%.

Turning to `C=C1C[C@@H](C(=O)Nc2nc(-c3ccc(C(=O)NC4CC4)cc3)cs2)N(C(=O)OC(C)(C)C)C1` [Compound 7040, (S)-2-[4-(4-Cyclopropylcarbamoyl-phenyl)-thiazol-2-ylcarbamoyl]-4-methylene-pyrrolidine-1-carboxylic acid tert-butyl ester], the inhibition at 5 µM came out at 89.9%.

`CC(C)(C)OC(=O)N1c2ccccc2C[C@H]1C(=O)Nc1nc(-c2ccc(C(=O)NC3CC3)cc2)cs1` [Compound 7020, (S)-2-[4-(4-Cyclopropylcarbamoyl-phenyl)-thiazol-2-ylcarbamoyl]-2,3-dihydro-indole-1-carboxylic acid tert-butyl ester] yielded an inhibition at 5 µM of 99.5%.

Compound `O=C(Cc1cccc(NC(=O)[C@@H]2CSC(c3ccncc3)N2C(=O)OCc2ccccc2)c1)Nc1ccccc1` (some centres unmarked) [Compound 7072, 4-(3-Phenylcarbamoylmethyl-phenylcarbamoyl)-2-pyridin-4-yl-thiazolidine-3-carboxylic acid benzyl ester] returned an inhibition at 5 µM of 80.8%.

On to `CC(C)(C)C(=O)N1C(C2CCOCC2)SC[C@H]1C(=O)Nc1nc(-c2ccc(C(=O)NC3CC3)cc2)cs1` (some centres unmarked) [Compound 7070, 3-(2,2-Dimethyl-propionyl)-2-(tetrahydro-pyran-4-yl)-thiazolidine-4-carboxylic acid [4-(4-cyclopropylcarbamoyl-phenyl)-thiazol-2-yl]-amide], for which 5 µM produced 96.1% inhibition.

`COc1ccc(C2SC[C@@H](C(=O)Nc3nc(-c4ccc(C(=O)NC5CC5)cc4)cs3)N2C(=O)OCc2ccccc2)cc1` (mixture of isomers) [Compound 7030, (R)-4-[4-(4-Cyclopropylcarbamoyl-phenyl)-thiazol-2-ylcarbamoyl]-2-(4-methoxy-phenyl)-thiazolidine-3-carboxylic acid benzyl ester] had an inhibition at 5 µM of 99.9%.

`O=C(NC1CC1)c1ccc(-c2csc(NC(=O)[C@@H]3CSC(c4cncs4)N3C(=O)OCc3ccccc3)n2)cc1` (mixture of isomers) [Compound 7015, (R)-4-[4-(4-Cyclopropylcarbamoyl-phenyl)-thiazol-2-ylcarbamoyl]-4,5-dihydro-[2,5′]bithiazolyl-3-carboxylic acid benzyl ester] yielded an inhibition at 5 µM of 100%.

As to `CC(C)(C)NC(=O)c1ccc(-c2csc(NC(=O)[C@@H]3CSC(c4ccncc4)N3C(=O)OCc3ccccc3)n2)cc1` (some centres unmarked) [Compound 7041, 4-[4-(4-tert-Butyl-carbamoyl-phenyl)-thiazol-2-ylcarbamoyl]-2-pyridin-4-yl-thiazolidine-3-carboxylic acid benzyl ester], the inhibition at 5 µM was found to be 100%.

The compound `CC(=O)c1ccc(C2SC[C@@H](C(=O)Nc3nc(-c4ccc(C(=O)NC5CC5)cc4)cs3)N2C(=O)OCc2ccccc2)cc1` (mixture of isomers) [Compound 7109, 2-(4-Acetyl-phenyl)-4-[4-(4-cyclopropylcarbamoyl-phenyl)-thiazol-2-ylcarbamoyl]-thiazolidine-3-carboxylic acid benzyl ester] displayed an inhibition at 5 µM of 100%.
